For the assay, the system named is HLA-A*24. Briefly: MHC binding assay, UV-ligand exchange with beta2m ELISA, HLA-A*24. Conditions: binding to HLA-A*24, UV-ligand exchange, β2m ELISA. The arrangement: species or system human. From the text:
Candidate peptides for T cell based therapies according to the present invention were further tested for their MHC binding capacity (affinity). The individual peptide-MHC complexes were produced by UV-ligand exchange, where a UV-sensitive peptide is cleaved upon UV-irradiation, and exchanged with the peptide of interest as analyzed. Only peptide candidates that can effectively bind and stabilize the peptide-receptive MHC molecules prevent dissociation of the MHC complexes. To determine the yield of the exchange reaction, an ELISA was performed based on the detection of the light chain (β2m) of stabilized MHC complexes. The assay was performed as generally described in Rodenko et al. (Rodenko et al., 2006).
96 well MAXISorp plates (NUNC) were coated over night with 2 ug/ml streptavidin in PBS at room temperature, washed 4× and blocked for 1 h at 37° C. in 2% BSA containing blocking buffer. […] Peptide-MHC monomers of the UV-exchange reaction were diluted 100 fold in blocking buffer. Samples were incubated for 1 h at 37° C., washed four times, incubated with 2 ug/ml HRP conjugated anti-β2m for 1 h at 37° C., washed again and detected with TMB solution that is stopped with […]. Absorption was measured at 450 nm. Candidate peptides that show a high exchange yield (preferably higher than 50%, most preferred higher than 75%) are generally preferred for a generation and production of antibodies or fragments thereof, and/or T cell receptors or fragments thereof, as they show sufficient avidity to the MHC molecules and prevent dissociation of the MHC complexes.
Background: ELISA stands for enzyme-linked immunosorbent assay.
For “140 (RYLINSYDF; listed as Homo sapiens) [compound 140]”, the “Peptide exchange (MHC class I binding score, peptide exchange yield)” value (from here on “Peptide exchange”) is “++++ (>=75% = ++++)”.

In the case of “144 (VFASLPGFLF; listed as Homo sapiens) [compound 144]”, the “Peptide exchange” value is reported as “++++ (>=75% = ++++)”.

With “148 (SYGTVSQIF; listed as Homo sapiens) [compound 148]”, the “Peptide exchange” value is given as “++++ (>=75% = ++++)”.

Regarding “149 (SYGTVSQI; listed as Homo sapiens) [compound 149]”, the “Peptide exchange” value is given as “++++ (>=75% = ++++)”.

Regarding “153 (VYVPFGGKSMITF; listed as Homo sapiens) [compound 153]”, the “Peptide exchange” value is “++++ (>=75% = ++++)”.

As for “154 (VYGVPTPHF; listed as Homo sapiens) [compound 154]”, the “Peptide exchange” value is “++++ (>=75% = ++++)”.

“155 (IYKWITDNF; listed as Homo sapiens) [compound 155]”: the “Peptide exchange” value is recorded as “++++ (>=75% = ++++)”.

Turning to “170 (QYPFHVPLL; listed as Homo sapiens) [compound 170]”, the “Peptide exchange” value is listed as “++++ (>=75% = ++++)”.

Consider “173 (QYLEKYYNL; listed as Homo sapiens) [compound 173]”, for which the “Peptide exchange” value is “++++ (>=75% = ++++)”.

Take “182 (AYAQLGYLLF; listed as Homo sapiens) [compound 182]”: the “Peptide exchange” value is listed as “++++ (>=75% = ++++)”.

Consider “184 (IYSVGAFENF; listed as Homo sapiens) [compound 184]”, for which the “Peptide exchange” value was “++++ (>=75% = ++++)”.

Turning to “185 (QYLVHVNDL; listed as Homo sapiens) [compound 185]”, the “Peptide exchange” value was “++++ (>=75% = ++++)”.

Consider “187 (AYAANVHYL; listed as Homo sapiens) [compound 187]”, for which the “Peptide exchange” value is “++++ (>=75% = ++++)”.

Turning to “196 (GYIRGSWQF; listed as Homo sapiens) [compound 196]”, the “Peptide exchange” value was “++++ (>=75% = ++++)”.

As for “197 (IFTDIFHYL; listed as Homo sapiens) [compound 197]”, the “Peptide exchange” value is “++++ (>=75% = ++++)”.

Take “206 (NYLDVATFL; listed as Homo sapiens) [compound 206]”: the “Peptide exchange” value is listed as “++++ (>=75% = ++++)”.

In the case of “208 (TYLEKIDGF; listed as Homo sapiens) [compound 208]”, the “Peptide exchange” value is given as “++++ (>=75% = ++++)”.

For “209 (AFIETPIPLF; listed as Homo sapiens) [compound 209]”, the “Peptide exchange” value is reported as “++++ (>=75% = ++++)”.

“210 (IYAGVGEFSF; listed as Homo sapiens) [compound 210]”: the “Peptide exchange” value was “++++ (>=75% = ++++)”.

For “211 (VFKSEGAYF; listed as Homo sapiens) [compound 211]”, the “Peptide exchange” value is recorded as “++++ (>=75% = ++++)”.

As to “217 (IYISNSIYF; listed as Homo sapiens) [compound 217]”, the “Peptide exchange” value is on record as “++++ (>=75% = ++++)”.

As to “220 (SYSEIKDFL; listed as Homo sapiens) [compound 220]”, the “Peptide exchange” value was “++++ (>=75% = ++++)”.

For the substance “221 (KYIGNLDLL; listed as Homo sapiens) [compound 221]”, the “Peptide exchange” value is “++++ (>=75% = ++++)”.

On to “223 (TFITQSPLL; listed as Homo sapiens) [compound 223]”, for which the “Peptide exchange” value is on record as “++++ (>=75% = ++++)”.

With “231 (AFADVSVKF; listed as Homo sapiens) [compound 231]”, the “Peptide exchange” value is recorded as “++++ (>=75% = ++++)”.

For “248 (AFPTFSVQL; listed as Homo sapiens) [compound 248]”, the “Peptide exchange” value was “++++ (>=75% = ++++)”.

On to “249 (RYHPTTCTI; listed as Homo sapiens) [compound 249]”, for which the “Peptide exchange” value was “++++ (>=75% = ++++)”.

Take “252 (AFGQETNVPLNNF; listed as Homo sapiens) [compound 252]”: the “Peptide exchange” value is listed as “++++ (>=75% = ++++)”.

With “260 (VYMNVMTRL; listed as Homo sapiens) [compound 260]”, the “Peptide exchange” value is given as “++++ (>=75% = ++++)”.

Consider “261 (GYIKLINFI; listed as Homo sapiens) [compound 261]”, for which the “Peptide exchange” value was “++++ (>=75% = ++++)”.

On to “262 (VYSSQFETI; listed as Homo sapiens) [compound 262]”, for which the “Peptide exchange” value was “++++ (>=75% = ++++)”.

“264 (LYTETRLQF; listed as Homo sapiens) [compound 264]”: the “Peptide exchange” value is “++++ (>=75% = ++++)”.

As to “265 (SYLNEAFSF; listed as Homo sapiens) [compound 265]”, the “Peptide exchange” value is “++++ (>=75% = ++++)”.

For the substance “271 (RFLMKSYSF; listed as Homo sapiens) [compound 271]”, the “Peptide exchange” value is given as “++++ (>=75% = ++++)”.

With “272 (RYVFPLPYL; listed as Homo sapiens) [compound 272]”, the “Peptide exchange” value is “++++ (>=75% = ++++)”.

Regarding “274 (KQLDIANYELF; listed as Homo sapiens) [compound 274]”, the “Peptide exchange” value is “++++ (>=75% = ++++)”.

Take “275 (KYGTLDVTF; listed as Homo sapiens) [compound 275]”: the “Peptide exchange” value is “++++ (>=75% = ++++)”.

For the substance “276 (QYLDVLHAL; listed as Homo sapiens) [compound 276]”, the “Peptide exchange” value is “++++ (>=75% = ++++)”.

Consider “280 (TYNPNLQDKL; listed as Homo sapiens) [compound 280]”, for which the “Peptide exchange” value was “++++ (>=75% = ++++)”.

As to “286 (SYGTILSHI; listed as Homo sapiens) [compound 286]”, the “Peptide exchange” value is reported as “++++ (>=75% = ++++)”.

Consider “289 (FFHEGQYVF; listed as Homo sapiens) [compound 289]”, for which the “Peptide exchange” value is “++++ (>=75% = ++++)”.

Regarding “290 (KYGDFKLLEF; listed as Homo sapiens) [compound 290]”, the “Peptide exchange” value is listed as “++++ (>=75% = ++++)”.

Regarding “292 (FYPQIINTF; listed as Homo sapiens) [compound 292]”, the “Peptide exchange” value is “++++ (>=75% = ++++)”.

With “293 (VYPHFSTTNLI; listed as Homo sapiens) [compound 293]”, the “Peptide exchange” value is given as “++++ (>=75% = ++++)”.

As to “296 (SYQVIFQHF; listed as Homo sapiens) [compound 296]”, the “Peptide exchange” value is recorded as “++++ (>=75% = ++++)”.

“297 (TYIDTRTVF; listed as Homo sapiens) [compound 297]”: the “Peptide exchange” value was “++++ (>=75% = ++++)”.

As to “298 (AYKSEVVYF; listed as Homo sapiens) [compound 298]”, the “Peptide exchange” value is listed as “++++ (>=75% = ++++)”.

Take “301 (KFDDVTMLF; listed as Homo sapiens) [compound 301]”: the “Peptide exchange” value is “++++ (>=75% = ++++)”.

With “305 (NYENKQYLF; listed as Homo sapiens) [compound 305]”, the “Peptide exchange” value was “++++ (>=75% = ++++)”.

Take “311 (EYLQNLNHI; listed as Homo sapiens) [compound 311]”: the “Peptide exchange” value is listed as “++++ (>=75% = ++++)”.

As for “313 (KYTHFIQSF; listed as Homo sapiens) [compound 313]”, the “Peptide exchange” value is reported as “++++ (>=75% = ++++)”.

For “319 (KYSDVKNLI; listed as Homo sapiens) [compound 319]”, the “Peptide exchange” value is “++++ (>=75% = ++++)”.

For the substance “357 (QFITSTNTF; listed as Homo sapiens) [compound 357]”, the “Peptide exchange” value is “++++ (>=75% = ++++)”.

As for “379 (VFIAQGYTL; listed as Homo sapiens) [compound 379]”, the “Peptide exchange” value was “++++ (>=75% = ++++)”.

These data come from patent publication US10159726B2, “Peptides, combination of peptides and scaffolds for use in immunotherapeutic treatment of various cancers” (Immatics Biotechnologies GmbH, priority 2015, dated 2018).
